Assay results published in PubChem BioAssay (NCI).
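Dose response: 5 concentrations. Exposure: 48 h. Format: 96-well plates. Endpoint: linear interpolation; highest concentration if not reached. At the TGI there is no net growth.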

Key:
Experiment in all cases: growth of human tumour cells (NCI), 48 h
[1] = system: HL-60(TB) leukemia
[2] = system: HT29 colon
[3] = system: K-562 leukemia
[4] = system: HS 578T breast
[5] = system: SK-OV-3 ovarian
[6] = system: UACC-62 melanoma
[7] = system: LOX IMVI melanoma
[8] = system: RPMI-8226 leukemia
[9] = system: MDA-MB-231 breast
[10] = system: HCT-116 colon
[11] = system: HOP-92 NSCLC
[12] = system: MALME-3M melanoma
[13] = system: HCT-15 colon
[14] = system: UACC-257 melanoma
[15] = system: MOLT-4 leukemia
[16] = system: ACHN renal
[17] = system: MDA-MB-435
[18] = system: CCRF-CEM leukemia
[19] = system: SW-620 colon
[20] = system: TK-10 renal
[21] = system: SNB-19 CNS
[22] = system: HOP-62 NSCLC
[23] = system: SNB-75 CNS
[24] = system: U251 CNS
[25] = system: PC-3 prostate
[26] = system: NCI-H23 lung
[27] = system: SR leukemia
[28] = system: SK-MEL-28 melanoma
[29] = system: NCI-H522 lung
[30] = system: SN12C renal
[31] = system: NCI/ADR-RES ovarian
[32] = system: HCC-2998 colon
[33] = system: EKVX NSCLC
[34] = system: M14 melanoma
[35] = system: KM12 colon
[36] = system: IGROV1 ovarian
[37] = system: SF-539 CNS
[38] = system: SK-MEL-5 melanoma
[39] = system: A549 NSCLC
[40] = system: OVCAR-3 ovarian
[41] = system: SF-295 CNS
[42] = system: OVCAR-4 ovarian
[43] = system: RXF 393 renal
[44] = system: NCI-H460 lung
[45] = system: T-47D breast
[46] = system: SK-MEL-2 melanoma
[47] = system: SF-268 CNS
[48] = system: OVCAR-8 ovarian
[49] = system: NCI-H226 lung
[50] = system: A498 renal
[51] = system: COLO 205 colon
[52] = system: CAKI-1 renal
[53] = system: 786-0 renal
[54] = system: MCF7 breast
[55] = system: MDA-N
[56] = system: OVCAR-5 ovarian
[57] = system: UO-31 renal
[58] = system: DU-145 prostate

CC(C)CC(NC(=O)C(Cc1ccccc1)NC(=O)[C@H]1CC[C@H](NC(=O)C(Cc2ccc(OC(C)(C)C)cc2)NC(=O)OC(C)(C)C)C1)C(N)=O (stereo partly drawn)
TGI [1]: > 100 µM
TGI [2]: 46.2 µM
TGI [3]: 47.9 µM
TGI [4]: 35.8 µM
TGI [5]: > 100 µM
TGI [6]: 41.8 µM
TGI [7]: 35.1 µM
TGI [8]: > 100 µM
TGI [9]: 97 µM
TGI [10]: 28.2 µM
TGI [11]: 59 µM
TGI [12]: 61 µM
TGI [13]: 48.9 µM
TGI [14]: 37 µM
TGI [15]: 53.6 µM
TGI [16]: > 100 µM
TGI [17]: 41.2 µM
TGI [18]: 43.3 µM
TGI [19]: 94.3 µM
TGI [20]: 86.9 µM
TGI [21]: 53.9 µM
TGI [22]: > 100 µM
TGI [23]: > 100 µM
TGI [24]: 28.6 µM
TGI [25]: 59.3 µM
TGI [26]: 31.4 µM
TGI [27]: > 100 µM
TGI [28]: 51.5 µM
TGI [29]: 33.7 µM
TGI [30]: 31.5 µM
TGI [31]: > 100 µM
TGI [32]: 27.5 µM
TGI [33]: > 100 µM
TGI [34]: 33.7 µM
TGI [35]: 44.1 µM
TGI [36]: 77.8 µM
TGI [37]: 42.6 µM
TGI [38]: 20.1 µM
TGI [39]: > 100 µM
TGI [40]: 58 µM
TGI [41]: 83.5 µM
TGI [42]: > 100 µM
TGI [43]: > 100 µM
TGI [44]: 39.7 µM
TGI [45]: 46.9 µM
TGI [46]: 34.8 µM
TGI [47]: > 100 µM
TGI [48]: 36 µM
TGI [49]: 45.2 µM
TGI [50]: > 100 µM
TGI [51]: 35.8 µM
TGI [52]: > 100 µM
TGI [53]: > 100 µM
TGI [54]: 31.9 µM
TGI [55]: 41.1 µM
TGI [56]: > 100 µM
TGI [57]: > 100 µM

C=CC1(c2ccc(-c3ccccc3)cc2)OCCO1
TGI [2]: 81.2 µM
TGI [3]: 61.9 µM
TGI [4]: 69 µM
TGI [5]: > 100 µM
TGI [6]: 89.1 µM
TGI [7]: > 100 µM
TGI [8]: > 100 µM
TGI [9]: > 100 µM
TGI [10]: > 100 µM
TGI [11]: 87.1 µM
TGI [12]: > 100 µM
TGI [13]: > 100 µM
TGI [14]: > 100 µM
TGI [15]: > 100 µM
TGI [16]: > 100 µM
TGI [17]: > 100 µM
TGI [18]: 86.4 µM
TGI [19]: > 100 µM
TGI [20]: > 100 µM
TGI [21]: > 100 µM
TGI [22]: > 100 µM
TGI [23]: > 100 µM
TGI [24]: > 100 µM
TGI [25]: > 100 µM
TGI [26]: 89.8 µM
TGI [27]: 84.6 µM
TGI [28]: > 100 µM
TGI [29]: > 100 µM
TGI [30]: > 100 µM
TGI [31]: > 100 µM
TGI [32]: > 100 µM
TGI [33]: > 100 µM
TGI [34]: > 100 µM
TGI [35]: > 100 µM
TGI [36]: > 100 µM
TGI [37]: > 100 µM
TGI [38]: > 100 µM
TGI [39]: > 100 µM
TGI [40]: > 100 µM
TGI [41]: > 100 µM
TGI [42]: > 100 µM
TGI [43]: 88.6 µM
TGI [44]: > 100 µM
TGI [45]: > 100 µM
TGI [46]: 53.7 µM
TGI [47]: > 100 µM
TGI [48]: > 100 µM
TGI [49]: 64.1 µM
TGI [51]: > 100 µM
TGI [53]: > 100 µM
TGI [54]: > 100 µM
TGI [55]: > 100 µM
TGI [56]: > 100 µM
TGI [57]: > 100 µM
TGI [58]: > 100 µM

C=CCNC(=S)/N=C\C(C(=O)OCC)=C(/O)C(=O)OCC
TGI [1]: > 100 µM
TGI [2]: > 100 µM
TGI [3]: > 100 µM
TGI [4]: > 100 µM
TGI [5]: > 100 µM
TGI [6]: > 100 µM
TGI [7]: > 100 µM
TGI [8]: > 100 µM
TGI [9]: > 100 µM
TGI [10]: > 100 µM
TGI [12]: > 100 µM
TGI [13]: > 100 µM
TGI [14]: > 100 µM
TGI [15]: > 100 µM
TGI [16]: > 100 µM
TGI [17]: > 100 µM
TGI [18]: > 100 µM
TGI [19]: > 100 µM
TGI [21]: > 100 µM
TGI [22]: > 100 µM
TGI [23]: > 100 µM
TGI [24]: > 100 µM
TGI [25]: > 100 µM
TGI [26]: > 100 µM
TGI [27]: > 100 µM
TGI [28]: > 100 µM
TGI [29]: > 100 µM
TGI [30]: > 100 µM
TGI [31]: > 100 µM
TGI [32]: > 100 µM
TGI [33]: > 100 µM
TGI [34]: > 100 µM
TGI [35]: > 100 µM
TGI [36]: > 100 µM
TGI [37]: > 100 µM
TGI [38]: > 100 µM
TGI [39]: > 100 µM
TGI [40]: > 100 µM
TGI [41]: > 100 µM
TGI [42]: > 100 µM
TGI [43]: > 100 µM
TGI [44]: > 100 µM
TGI [45]: > 100 µM
TGI [46]: > 100 µM
TGI [47]: > 100 µM
TGI [48]: > 100 µM
TGI [49]: > 100 µM
TGI [51]: > 100 µM
TGI [52]: > 100 µM
TGI [53]: > 100 µM
TGI [54]: > 100 µM
TGI [55]: > 100 µM
TGI [56]: > 100 µM
TGI [57]: > 100 µM
TGI [58]: > 100 µM

COP(=O)(OC)/C(=C/c1cn(C(C)=O)c2ccccc12)NC(C)=O
TGI [1]: 42.6 µM
TGI [2]: > 100 µM
TGI [3]: > 100 µM
TGI [4]: > 100 µM
TGI [5]: > 100 µM
TGI [7]: 41.9 µM
TGI [8]: 45.3 µM
TGI [9]: > 100 µM
TGI [10]: > 100 µM
TGI [13]: 66.4 µM
TGI [14]: > 100 µM
TGI [16]: > 100 µM
TGI [17]: > 100 µM
TGI [18]: 58.3 µM
TGI [19]: > 100 µM
TGI [20]: > 100 µM
TGI [22]: > 100 µM
TGI [23]: > 100 µM
TGI [24]: > 100 µM
TGI [25]: > 100 µM
TGI [26]: > 100 µM
TGI [27]: > 100 µM
TGI [28]: > 100 µM
TGI [29]: > 100 µM
TGI [30]: > 100 µM
TGI [31]: > 100 µM
TGI [34]: > 100 µM
TGI [36]: > 100 µM
TGI [38]: > 100 µM
TGI [39]: > 100 µM
TGI [40]: 66.2 µM
TGI [41]: > 100 µM
TGI [42]: > 100 µM
TGI [44]: > 100 µM
TGI [45]: > 100 µM
TGI [46]: > 100 µM
TGI [48]: > 100 µM
TGI [50]: 94.3 µM
TGI [51]: > 100 µM
TGI [52]: > 100 µM
TGI [54]: > 100 µM
TGI [55]: 36.3 µM
TGI [56]: > 100 µM
TGI [58]: > 100 µM

N#CCCC1(CCC#N)CCCCCCC(CCC#N)(CCC#N)C(=O)C1=O
TGI [2]: > 100 µM
TGI [3]: > 100 µM
TGI [4]: > 100 µM
TGI [5]: > 100 µM
TGI [6]: > 100 µM
TGI [7]: > 100 µM
TGI [10]: > 100 µM
TGI [11]: > 100 µM
TGI [12]: > 100 µM
TGI [13]: > 100 µM
TGI [14]: > 100 µM
TGI [16]: > 100 µM
TGI [17]: > 100 µM
TGI [19]: > 100 µM
TGI [20]: > 100 µM
TGI [21]: > 100 µM
TGI [22]: > 100 µM
TGI [23]: > 100 µM
TGI [24]: > 100 µM
TGI [25]: > 100 µM
TGI [26]: > 100 µM
TGI [27]: > 100 µM
TGI [28]: > 100 µM
TGI [29]: > 100 µM
TGI [30]: > 100 µM
TGI [31]: > 100 µM
TGI [32]: > 100 µM
TGI [33]: > 100 µM
TGI [34]: > 100 µM
TGI [35]: > 100 µM
TGI [36]: > 100 µM
TGI [37]: > 100 µM
TGI [38]: > 100 µM
TGI [39]: > 100 µM
TGI [40]: > 100 µM
TGI [41]: > 100 µM
TGI [42]: > 100 µM
TGI [43]: > 100 µM
TGI [44]: > 100 µM
TGI [45]: > 100 µM
TGI [46]: > 100 µM
TGI [47]: > 100 µM
TGI [48]: > 100 µM
TGI [50]: > 100 µM
TGI [51]: > 100 µM
TGI [52]: > 100 µM
TGI [53]: > 100 µM
TGI [54]: > 100 µM
TGI [55]: > 100 µM
TGI [56]: > 100 µM
TGI [57]: 20.8 µM
TGI [58]: > 100 µM
